Measured values from paper doi:10.1101/2021.06.21.449268v1 (biorxiv, 2021).
Like-named read-outs stand apart in the source and are kept apart here.

Assays:
[1] = target: T1, Pf20S β5 (Plasmodium falciparum, UniProt Q8IJT1); test: biochemical
T1 sequence (Q8IJT1 61-271): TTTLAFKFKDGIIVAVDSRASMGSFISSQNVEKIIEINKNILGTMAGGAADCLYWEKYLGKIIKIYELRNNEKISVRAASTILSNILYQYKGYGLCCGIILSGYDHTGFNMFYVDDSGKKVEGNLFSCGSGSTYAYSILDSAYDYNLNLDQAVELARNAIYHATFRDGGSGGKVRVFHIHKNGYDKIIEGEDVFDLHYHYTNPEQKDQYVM
T1 sequence (A0A5K1K7U1 29-240 partner): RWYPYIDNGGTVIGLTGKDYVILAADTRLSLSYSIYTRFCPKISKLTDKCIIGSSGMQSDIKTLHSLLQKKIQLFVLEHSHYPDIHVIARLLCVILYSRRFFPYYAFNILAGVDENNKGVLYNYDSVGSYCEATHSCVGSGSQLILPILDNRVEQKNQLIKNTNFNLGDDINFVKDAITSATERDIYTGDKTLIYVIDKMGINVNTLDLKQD

[2] = target: T2, human i-20S β5i (Homo sapiens, UniProt P28062); conditions: read-out: IC50 (nM) i-20S; inhibitor
T2 sequence (P28062 73-276): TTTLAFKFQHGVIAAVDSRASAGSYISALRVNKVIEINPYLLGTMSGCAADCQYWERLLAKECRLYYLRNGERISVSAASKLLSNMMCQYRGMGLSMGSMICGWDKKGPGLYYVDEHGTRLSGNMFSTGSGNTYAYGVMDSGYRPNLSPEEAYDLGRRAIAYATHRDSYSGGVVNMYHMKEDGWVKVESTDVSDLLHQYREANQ
T2 sequence (P20618 29-241 partner): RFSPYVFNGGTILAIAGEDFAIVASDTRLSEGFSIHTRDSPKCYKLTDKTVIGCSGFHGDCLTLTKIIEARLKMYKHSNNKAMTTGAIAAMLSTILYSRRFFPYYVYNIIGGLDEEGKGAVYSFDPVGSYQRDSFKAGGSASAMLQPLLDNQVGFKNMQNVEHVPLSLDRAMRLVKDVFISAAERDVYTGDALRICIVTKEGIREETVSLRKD

[3] = system: Plasmodium falciparum Pf3D7; test: microbe, parasite or virus in culture; parameters: species or system P. falciparum 3D7 in human red blood cells; conditions: Erythrocyte, read-out: EC50 (nM) Pf3D7
[4] = target: T2, human i-20S β5i; test: fluorogenic peptidase assay; format: biochemical; conditions: 15 μM Ac-ANW-AMC; 0.4 nM i-20S; 0.02% SDS; pH 7.5; β5i active site
[5] = target: T1, Pf20S β5; test: fluorogenic peptidase assay; format: biochemical
[6] = target: T3, human c-20S β5c (Homo sapiens, UniProt P28074); test: fluorogenic peptidase assay; format: biochemical; conditions: 25 μM suc-LLVY-AMC; 0.2 nM c-20S; 0.02% SDS; pH 7.5; β5c active site
T3 sequence (P28074 60-263): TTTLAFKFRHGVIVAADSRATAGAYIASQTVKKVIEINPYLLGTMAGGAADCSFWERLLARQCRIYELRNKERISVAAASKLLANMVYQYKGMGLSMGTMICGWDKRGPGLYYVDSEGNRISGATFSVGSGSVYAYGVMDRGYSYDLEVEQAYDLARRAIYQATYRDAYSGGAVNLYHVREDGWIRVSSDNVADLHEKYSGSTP
T3 sequence (P20618 29-241 partner): T2 sequence (P20618 29-241 partner)

[7] = target: T3, human c-20S β5c; conditions: read-out: IC50 (nM) c-20S; inhibitor

Row | SMILES | IC50 [1] | IC50 [2] | EC50 [3] | IC50 [4] | IC50 [5] | IC50 [6] | IC50 [7]
1 | C[C@H]1[C@H](OC(=O)CCC(=O)N[C@@H](CC(=O)NC(C)(C)C)C(=O)NCCNC(=O)c2cc(-c3ccccc3)ccn2)O[C@@H]2O[C@@]3(C)CC[C@H]4[C@H](C)CC[C@@H]1[C@@]24OO3 [WZ-06, (3R,5aS,6R,8aS,9R,10S,12R,12aR)-3,6,9-trimethyldecahydro-12H-3,12-epoxy[1,2]dioxepino[4,3-i]isochromen-10-yl 4-(((S)-4-(tert-butylamino)-1,4-dioxo-1-((2-(4-phenylpicolinamido)ethyl)amino)butan-2-yl)amino)-4-oxobutanoate] | 13.5 ± 7.6 nM | 1100 nM | 3.6 ± 0.01 nM | – | – | – | –
2 | C[C@H]1[C@@H](CC(=O)NCCC(=O)N[C@@H](CC(=O)NC(C)(C)C)C(=O)NCCNC(=O)c2cc(-c3ccccc3F)ccc2F)O[C@@H]2O[C@@]3(C)CC[C@H]4[C@H](C)CC[C@@H]1[C@@]24OO3 [ATZ3] | – | – | – | 260 ± 51 nM | 2.4 ± 0.4 nM | – | –
3 | C[C@H]1[C@@H](CC(=O)NCCCC(=O)N[C@@H](CC(=O)NC(C)(C)C)C(=O)NCCNC(=O)c2cc(-c3ccccc3F)ccc2F)O[C@@H]2O[C@@]3(C)CC[C@H]4[C@H](C)CC[C@@H]1[C@@]24OO3 [ATZ4] | – | – | – | 200 ± 57 nM | – | 890 ± 140 nM | –
4 | C[C@H]1[C@@H](CC(=O)NCC(=O)N[C@@H](CC(=O)NC(C)(C)C)C(=O)NCCNC(=O)c2cc(-c3ccccc3F)ccc2F)O[C@@H]2O[C@@]3(C)CC[C@H]4[C@H](C)CC[C@@H]1[C@@]24OO3 [ATZ2] | – | – | – | 73 ± 19 nM | – | 210 ± 40 nM | –
5 | C[C@H]1[C@H](OC(=O)CCC(=O)N[C@@H](CC(=O)NC(C)(C)C)C(=O)NCCNC(=O)c2cc(-c3ccccc3F)ccc2F)O[C@@H]2O[C@@]3(C)CC[C@H]4[C@H](C)CC[C@@H]1[C@@]24OO3 [WZ-13, (3R,5aS,6R,8aS,9R,10S,12R,12aR)-3,6,9-trimethyldecahydro-12H-3,12-epoxy[1,2]dioxepino[4,3-i]isochromen-10-yl 4-(((S)-4-(tert-butylamino)-1-((2-(2',4-difluoro-[1,1'-biphenyl]-3-carboxamido)ethyl)amino)-1,4-dioxobutan-2-yl)amino)-4-oxobutanoate] | 5.5 ± 3.8 nM | 158 ± 50 nM | 2.5 ± 0.7 nM | – | – | – | 440 ± 110 nM
6 | C[C@H]1[C@H](OC(=O)CCC(=O)N[C@@H](CC(=O)NC(C)(C)C)C(=O)NCCNC(=O)c2cc(-c3ccccc3F)ccc2F)O[C@@H]2O[C@@]3(C)CC[C@H]4[C@H](C)CC[C@@H]1[C@@]24OO3 [WZ-13] | – | – | – | – | 2 nM | – | –
7 | C[C@H]1[C@@H](CC(=O)N[C@@H](CC(=O)NC(C)(C)C)C(=O)NCCNC(=O)c2cc(-c3ccccc3F)ccc2F)O[C@@H]2O[C@@]3(C)CC[C@H]4[C@H](C)CC[C@@H]1[C@@]24OO3 [ATZ1] | – | – | – | 650 ± 94 nM | 63.2 ± 11 nM | 3600 nM | –
8 | C[C@H]1[C@H](OC(=O)CCC(=O)O)O[C@@H]2O[C@@]3(C)CC[C@H]4[C@H](C)CC[C@@H]1[C@@]24OO3 [Artesunate] | > 100000 nM | > 100000 nM | 6.2 ± 4 nM | – | – | – | > 100000 nM
9 | C[C@H]1[C@H](OC(=O)CCC(=O)N[C@@H](CC(=O)NC(C)(C)C)C(=O)NCCNC(=O)c2cc(-c3ccccc3)ccn2)O[C@@H]2O[C@@]3(C)CC[C@H]4[C@H](C)CC[C@@H]1[C@@]24OO3 [WZ-06] | – | – | – | – | 6 nM | – | –
10 | CC(C)(C)NC(=O)C[C@H](NC(=O)CCCNC(=O)OC(C)(C)C)C(=O)NCCNC(=O)c1cc(-c2ccccc2F)ccc1F [PI01] | – | – | – | 200 ± 46 nM | – | 2000 nM | –
11 | CC(C)(C)NC(=O)C[C@H](NC(=O)CCC(=O)O)C(=O)NCCNC(=O)c1cc(-c2ccccc2F)ccc1F [WZ-20, (S)-4-((4-(tert-butylamino)-1-((2-(2',4-difluoro-[1,1'-biphenyl]-3-carboxamido)ethyl)amino)-1,4-dioxobutan-2-yl)amino)-4-oxobutanoic acid] | 6 ± 0.005 nM | 3490 nM | 50.8 ± 0.7 nM | – | – | – | 34300 nM
